The experiment has as its target T1, GCS (Canis lupus familiaris, UniProt A0A8I3MXG6).
T1 construct: endogenous in cells; host or cells: MDCK (Madin-Darby canine kidney) cells, whole-cell lysate
T1 sequence (A0A8I3MXG6 1-394): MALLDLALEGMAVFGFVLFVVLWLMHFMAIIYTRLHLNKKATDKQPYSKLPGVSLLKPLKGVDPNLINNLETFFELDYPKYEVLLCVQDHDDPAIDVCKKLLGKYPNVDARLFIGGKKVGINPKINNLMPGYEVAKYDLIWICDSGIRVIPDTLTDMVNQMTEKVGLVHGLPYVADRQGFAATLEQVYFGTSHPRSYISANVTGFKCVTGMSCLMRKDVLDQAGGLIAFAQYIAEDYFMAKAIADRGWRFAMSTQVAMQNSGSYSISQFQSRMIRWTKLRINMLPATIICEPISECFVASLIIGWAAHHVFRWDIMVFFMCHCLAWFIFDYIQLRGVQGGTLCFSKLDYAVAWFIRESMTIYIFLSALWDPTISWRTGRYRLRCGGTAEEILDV
The experiment is described as follows: GCS enzymatic assay (MDCK cell lysate, NBD-ceramide to glucosylceramide, LC/MS). In kind it is biochemical, canine. To be noted: Table 2, the table does not say which of the assays; for IC50: class symbols A, B, C, read-out: Data Range (IC50 values); for Data Range (% inhibition): class symbols D, E, F, NA (not active). The gist of the method:
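Dog MDCK cell lysate served as enzyme source, with NBD-ceramide turned over to glucosylceramide and 0.1% DMSO as mock control. The reaction was stopped with acetonitrile. Both lipids were quantified by LC/MS/MS in ESI positive MRM mode against a tolbutamide internal standard, giving IC50 or percent inhibition.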

What is called IC50 is the concentration at which inhibition is half-maximal.

As to `O=C(N[C@H](CN1CCCC1)[C@H](O)c1ccc(OC2CCOCC2)c(Cl)c1)[C@@H]1CCN(c2ccc3cc(Cl)sc3c2)C1` [Compound 101, (R)-N-((1R,2R)-1-(3-chloro-4-((tetrahydro-2H-pyran-4-yl)oxy)phenyl)-1-hydroxy-3-(pyrrolidin-1-yl)propan-2-yl)-1-(2-chlorobenzo[b]thiophen-6-yl)pyrrolidine-3-carboxamide], the IC50 was in the range of 1 to 30 nM.

For the compound `O=C(N[C@H](CN1CCCC1)[C@H](O)c1ccc(OC2CC2)c(F)c1)[C@@H]1CCN(c2ccc(Cl)cc2)C1` [Compound 65, (R)-1-(4-chlorophenyl)-N((1R,2R)-1-(4-cyclopropoxy-3-fluorophenyl)-1-hydroxy-3-(pyrrolidin-1-yl)propan-2-yl)pyrrolidine-3-carboxamide], the IC50 is 1 to 30 nM.

`O=C(N[C@H](CN1CCCC1)[C@H](O)c1ccc(OC2CC2)c(Cl)c1)[C@H]1CCN(c2ccc3ccccc3c2)C1` [Compound 67C, (S)-N-((1R,2R)-1-(3-chloro-4-cyclopropoxyphenyl)-1-hydroxy-3-(pyrrolidin-1-yl)propan-2-yl)-1-(naphthalen-2-yl)pyrrolidine-3-carboxamide]: the “Data Range (% inhibition)” value was “E (50-74% (or less than 75%))”.

For `O=C(N[C@H](CN1CCCC1)[C@H](O)c1ccc2c(c1)OCCO2)[C@@H]1CCN(c2ccc(Cl)c(Oc3ccccn3)c2)C1` [Compound 110, (R)-1-(4-chloro-3-(pyridin-2-yloxy)phenyl)-N-((1R,2R)-1-(2,3-dihydrobenzo[b][1,4]dioxin-6-yl)-1-hydroxy-3-(pyrrolidin-1-yl)propan-2-yl)pyrrolidine-3-carboxamide], the IC50 lay in the range of 1 to 30 nM.

Turning to `O=C(N[C@H](CN1CCCC1)[C@H](O)c1ccc(OC2CC2)c(F)c1)[C@@H]1CCN(c2ccccc2)C1` [Compound 151, (R)-N-((1R,2R)-1-(4-cyclopropoxy-3-fluorophenyl)-1-hydroxy-3-(pyrrolidin-1-yl)propan-2-yl)-1-phenylpyrrolidine-3-carboxamide], the IC50 was in the range of 1 to 30 nM.

Consider `O=C(N[C@H](CN1CCCC1)[C@H](O)c1ccc2c(c1)OCCO2)[C@H]1CCN(c2ccc(OC3CC3)c(Cl)c2)C1` [Compound 20E, (S)-1-(3-chloro-4-cyclopropoxyphenyl)-N-((1R,2R)-1-(2,3-dihydrobenzo[b][1,4]dioxin-6-yl)-1-hydroxy-3-(pyrrolidin-1-yl)propan-2-yl)pyrrolidine-3-carboxamide], for which the “Data Range (% inhibition)” value is listed as “F (1-49% (or less than 50%))”.

Turning to `Cc1cccc(Oc2cc(N3CC[C@@H](C(=O)N[C@H](CN4CCCC4)[C@H](O)c4ccc(OC5CC5)c(Cl)c4)C3)ccc2Cl)n1` [Compound 131, (R)-1-(4-chloro-3-((6-methylpyridin-2-yl)oxy)phenyl)-N-((1R,2R)-1-(3-chloro-4-cyclopropoxyphenyl)-1-hydroxy-3-(pyrrolidin-1-yl)propan-2-yl)pyrrolidine-3-carboxamide], the IC50 is 1 to 30 nM.

As for `O=C(N[C@H](CN1CCCC1)[C@H](O)c1cc(F)c2c(c1)OCCO2)[C@@H]1CCN(c2ccc(Cl)cc2)C1` [Compound 2, (R)-1-(4-chlorophenyl)-N-((1R,2R)-1-(8-fluoro-2,3-dihydrobenzo[b][1,4]dioxin-6-yl)-1-hydroxy-3-(pyrrolidin-1-yl)propan-2-yl)pyrrolidine-3-carboxamide], the IC50 was 1 to 30 nM.

Take `O=C(N[C@H](CN1CCCC1)[C@H](O)c1ccc2c(c1)OCCO2)[C@@H]1CCN(c2ccc3nccnc3c2)C1` [Compound 83, (R)-N-((1R,2R)-1-(2,3-dihydrobenzo[b][1,4]dioxin-6-yl)-1-hydroxy-3-(pyrrolidin-1-yl)propan-2-yl)-1-(quinoxalin-6-yl)pyrrolidine-3-carboxamide]: the “Data Range (% inhibition)” value is “F (1-49% (or less than 50%))”.

Regarding `O=C(N[C@H](CN1CCCC1)[C@H](O)c1ccc(OC2CCOCC2)c(Cl)c1)[C@@H]1CCN(c2ccc(Cl)cc2)C1` [Compound 45, (R)-N-((1R,2R)-1-(3-chloro-4-((tetrahydro-2H-pyran-4-yl)oxy)phenyl)-1-hydroxy-3-(pyrrolidin-1-yl)propan-2-yl)-1-(4-chlorophenyl)pyrrolidine-3-carboxamide], the IC50 lay in the range of 1 to 30 nM.

For the compound `O=C(N[C@H](CN1CCCC1)[C@H](O)c1ccc(OC2CCOCC2)c(Cl)c1)[C@@H]1CCN(c2ccc(F)cc2)C1` [Compound 32, (R)-N-((1R,2R)-1-(3-chloro-4-((tetrahydro-2H-pyran-4-yl)oxy)phenyl)-1-hydroxy-3-(pyrrolidin-1-yl)propan-2-yl)-1-(4-fluorophenyl)pyrrolidine-3-carboxamide], the IC50 is 1 to 30 nM.

As for `O=C(N[C@H](CN1CCCC1)[C@H](O)c1cc(F)c2c(c1)OCCO2)[C@H]1CCN(c2ccccn2)C1` [Compound 48A, (S)-N-((1R,2R)-1-(8-fluoro-2,3-dihydrobenzo[b][1,4]dioxin-6-yl)-1-hydroxy-3-(pyrrolidin-1-yl)propan-2-yl)-1-(pyridin-2-yl)pyrrolidine-3-carboxamide], the “Data Range (% inhibition)” value was “F (1-49% (or less than 50%))”.

As for `O=C(N[C@H](CN1CCCC1)[C@H](O)c1ccc(OC2CC2)cc1)[C@@H]1CCN(c2ccc3cc(F)ccc3c2)C1` [Compound 162, (R)-N-((1R,2R)-1-(4-cyclopropoxyphenyl)-1-hydroxy-3-(pyrrolidin-1-yl)propan-2-yl)-1-(6-fluoronaphthalen-2-yl)pyrrolidine-3-carboxamide], the IC50 was in the range of 1 to 30 nM.

In the case of `O=C(N[C@H](CN1CCCC1)[C@H](O)c1cc(F)c2c(c1)OCCO2)[C@@H]1CCN(c2ccc(F)cc2)C1` [Compound 35, (R)-N-((1R,2R)-1-(8-fluoro-2,3-dihydrobenzo[b][1,4]dioxin-6-yl)-1-hydroxy-3-(pyrrolidin-1-yl)propan-2-yl)-1-(4-fluorophenyl)pyrrolidine-3-carboxamide], the IC50 lay within 1 to 30 nM.

As to `O=C(N[C@H](CN1CCC1)[C@H](O)c1cc(F)c2c(c1)OCCO2)C1CCN(c2ccc3cc(F)ccc3c2)C1` (stereo partly drawn) [Compound 47A, N-((1R,2R)-3-(azetidin-1-yl)-1-(8-fluoro-2,3-dihydrobenzo[b][1,4]dioxin-6-yl)-1-hydroxypropan-2-yl)-1-(6-fluoronaphthalen-2-yl)pyrrolidine-3-carboxamide], the IC50 lay in the range of 1 to 30 nM.

Turning to `O=C(N[C@H](CN1CCCC1)[C@H](O)c1ccc(OC2CC2)c(Cl)c1)C1CCN(c2ccc(OC(F)(F)F)cc2)C1` (stereo partly drawn) [Compound 10, N-((1R,2R)-1-(3-chloro-4-cyclopropoxyphenyl)-1-hydroxy-3-(pyrrolidin-1-yl)propan-2-yl)-1-(4-(trifluoromethoxy)phenyl)pyrrolidine-3-carboxamide], the “Data Range (% inhibition)” value is reported as “D (75-100%)”.

With `O=C(N[C@H](CN1CCCC1)[C@H](O)c1ccc(OC2CC2)c(Cl)c1)C1CCN(c2ccc(Cl)cc2)C1` (stereo in doubt) [Compound 3, (S)-N-((1R,2R)-1-(3-chloro-4-cyclopropoxyphenyl)-1-hydroxy-3-(pyrrolidin-1-yl)propan-2-yl)-1-(4-chlorophenyl)pyrrolidine-3-carboxamide], the IC50 fell in the range of 1 to 30 nM.

Turning to `O=C(N[C@H](CN1CCCC1)[C@H](O)c1ccc2c(c1)OCCO2)C1CCN(c2nc3c(s2)CCCC3)C1` (stereo partly drawn) [Compound 36F, N-((1R,2R)-1-(2,3-dihydrobenzo[b][1,4]dioxin-6-yl)-1-3-hydroxy-(pyrrolidin-1-yl)propan-2-yl)-1-(4,5,6,7-tetrahydrobenzo[d]thiazol-2-yl)pyrrolidine-3-carboxamide], the “Data Range (% inhibition)” value is recorded as “F (1-49% (or less than 50%))”.

For `O=C(N[C@H](CN1CCCC1)[C@H](O)c1ccc(OC2CCOCC2)c(Cl)c1)[C@H]1CCN(c2ccc3cc(F)ccc3c2)C1` [Compound 50A, (S)-N-((1R,2R)-1-(3-chloro-4-((tetrahydro-2H-pyran-4-yl)oxy)phenyl)-1-hydroxy-3-(pyrrolidin-1-yl)propan-2-yl)-1-(6-fluoronaphthalen-2-yl)pyrrolidine-3-carboxamide], the “Data Range (% inhibition)” value is “E (50-74% (or less than 75%))”.

For the compound `O=C(N[C@H](CN1CCC1)[C@H](O)c1cc(F)c2c(c1)OCCO2)[C@H]1CCN(c2ccc(Cl)cc2)C1` [Compound 25B, (S)-N-((1R,2R)-3-(azetidin-1-yl)-1-(8-fluoro-2,3-dihydrobenzo[b][1,4]dioxin-6-yl)-1-hydroxypropan-2-yl)-1-(4-chlorophenyl)pyrrolidine-3-carboxamide], the “Data Range (% inhibition)” value is recorded as “F (1-49% (or less than 50%))”.

Take `CC(C)(O)COc1ccc([C@@H](O)[C@@H](CN2CCCC2)NC(=O)[C@@H]2CCN(c3ccc4cc(F)ccc4c3)C2)cc1Cl` [Compound 102, (R)-N-((1R,2R)-1-(3-chloro-4-(2-hydroxy-2-methylpropoxy)phenyl)-1-hydroxy-3-(pyrrolidin-1-yl)propan-2-yl)-1-(6-fluoronaphthalen-2-yl)pyrrolidine-3-carboxamide]: the concentration for half-maximal inhibition (IC50) fell in the range of 1 to 30 nM.

In the case of `O=C(N[C@H](CN1CCCC1)[C@H](O)c1ccc2c(c1)OCCO2)[C@@H]1CCN(c2nc3c(s2)CCCC3)C1` [Compound 36, (R)-N-((1R,2R)-1-(2,3-dihydrobenzo[b][1,4]dioxin-6-yl)-1-hydroxy-3-(pyrrolidin-1-yl)propan-2-yl)-1-(4,5,6,7-tetrahydrobenzo[d]thiazol-2-yl)pyrrolidine-3-carboxamide], the “Data Range (% inhibition)” value is on record as “F (1-49% (or less than 50%))”.

Values taken from patent publication US10239832B2, “N-(1-hydroxy-3-(pyrrolidinyl)propan-2-yl)pyrrolidine-3-carboxamide derivatives as glucosylceramide synthase inhibitors” (BIOMARIN PHARMACEUTICAL INC., priority 2013, dated 2019).
